Results as given in patent US4311699A, “Aminoacid derivatives of cephalosporin compounds” (priority 1980, dated 1982).
≈ marks a conversion by molar mass, not a printed value.

Key:
Experiment in all cases: in vitro antibacterial activity, minimal inhibitory concentration
Assay type in all cases: cell-based
Staph. aureus UC-76 = settings: Staphylococcus aureus, UC76; Staph. aureus UC-76, in vitro
Description: (§1) The compounds of the invention are new chemical compounds that are used as pharmacological agents and especially as broad spectrum antibacterial agents. They are active in vitro against strains of both gram-positive and gram-negative bacteria.
(§2) Minimal Inhibitory Concentration (μg/ml)

E. coli Vogel = settings: Escherichia coli
Description: as §1, §2

Pseudomonas #28 = settings: Pseudomonas #28, in vitro; read-out: Minimal Inhibitory Concentration
Description: as §1, §2

E. coli Brig = settings: Escherichia coli
Description: as §1, §2

Staph. aureus S18733 = settings: Staphylococcus aureus
Description: as §1, §2

Prot. vulg. = tested on: Prot. vulg.
Description: as §1, §2

Strep. fec. = tested on: Strep. fec.
Description: as §1, §2

Entero. cloacae = settings: Enterobacter cloacae
Description: as §1, §2

Pseudomonas UI 18 = settings: UI18; Pseudomonas UI 18, in vitro
Description: as §1, §2

Serr. marces. = tested on: Serr. marces.
Description: as §1, §2

Klebs. pneu. = tested on: Klebs. pneu.
Description: as §1, §2

Pseudomonas BRK 12-4-4 = settings: BRK1244; Pseudomonas BRK 12-4-4, in vitro
Description: as §1, §2

Compound	MIC (Staph. aureus UC-76)	MIC (E. coli Vogel)	MIC (Pseudomonas #28)	MIC (E. coli Brig)	MIC (Staph. aureus S18733)	MIC (Prot. vulg.)	MIC (Strep. fec.)	MIC (Entero. cloacae)	MIC (Pseudomonas UI 18)	MIC (Serr. marces.)	MIC (Klebs. pneu.)	MIC (Pseudomonas BRK 12-4-4)
CC(=O)N[C@@H](C(=O)Nc1ccc(-c2ncc(C(=O)N[C@@H](C(=O)NC3C(=O)N4C(C(=O)O)=C(CSc5nnnn5C)CSC34)c3ccccc3)c(O)n2)cc1)C(C)C (stereo partly drawn) [Example 29]	1.6 µg/mL (≈ 1.96 µM)	1.6 µg/mL (≈ 1.96 µM)	6.3 µg/mL (≈ 7.72 µM)	12.5 µg/mL (≈ 15.3 µM)	3.1 µg/mL (≈ 3.8 µM)	6.3 µg/mL (≈ 7.72 µM)	25 µg/mL (≈ 30.6 µM)	12.5 µg/mL (≈ 15.3 µM)	6.3 µg/mL (≈ 7.72 µM)	50 µg/mL (≈ 61.3 µM)	3.1 µg/mL (≈ 3.8 µM)	12.5 µg/mL (≈ 15.3 µM)
CC(=O)NCCCCC(NC(C)=O)C(=O)Nc1ccc(-c2ncc(C(=O)N[C@@H](C(=O)N[C@@H]3C(=O)N4C(C(=O)O)=C(COC(C)=O)CS[C@H]34)c3ccccc3)c(O)n2)cc1 (mixture of isomers) [Example 12, N-[2-[4-(N^α,N^ω -Diacetyl-DL-lysylamino)phenyl]-4-hydroxy-5-pyrimidinylcarbonyl]-7-[D-2-amino-2-phenylacetamido]-3-acetoxymethyl-3-cephem-4carboxylic acid]	1.6 µg/mL	6.3 µg/mL	6.3 µg/mL	50 µg/mL	6.3 µg/mL	50 µg/mL	50 µg/mL	25 µg/mL	6.3 µg/mL	> 50 µg/mL	25 µg/mL	12.5 µg/mL
CC(=O)N[C@H](C)C(=O)Nc1ccc(-c2ncc(C(=O)N[C@@H](C(=O)NC3C(=O)N4C(C(=O)O)=C(CSc5nnnn5CC(=O)O)CSC34)c3ccccc3)c(O)n2)cc1 (stereo partly drawn) [Example 34, N-[2-[4-(N-Acetyl-D-alanylamino)phenyl]-4-hydroxy-5-pyrimidinylcarbonyl]-7-[D-2-amino-2-phenylacetamido]-3-[[(1-carboxymethyl-1H-tetrazol-5-yl)thio]methyl]-3-cephem-4-carboxylic acid]	12.5 µg/mL (≈ 15 µM)	3.1 µg/mL (≈ 3.73 µM)	12.5 µg/mL (≈ 15 µM)	12.5 µg/mL (≈ 15 µM)	25 µg/mL (≈ 30.1 µM)	1.6 µg/mL (≈ 1.92 µM)	> 50 µg/mL	12.5 µg/mL (≈ 15 µM)	12.5 µg/mL (≈ 15 µM)	> 50 µg/mL	6.3 µg/mL (≈ 7.57 µM)	12.5 µg/mL (≈ 15 µM)
CC(=O)NC(C)C(=O)Nc1ccc(-c2ncc(C(=O)N[C@@H](C(=O)NC3C(=O)N4C(C(=O)O)=C(CSc5nnnn5CC(=O)O)CSC34)c3ccccc3)c(O)n2)cc1 (mixture of isomers) [Example 35, N-[2-[4-(N-Acetyl-DL-alanylamino)phenyl]-4-hydroxy-5-pyrimidinylcarbonyl]-7-[D-2-phenylacetamido-3-[[(1-carboxymethyl-1H-tetrazol-5-yl)thio]methyl]-3-cephem-4-carboxylic acid]	12.5 µg/mL	3.1 µg/mL	6.3 µg/mL	6.3 µg/mL	25 µg/mL	3.1 µg/mL	> 50 µg/mL	6.3 µg/mL	12.5 µg/mL	50 µg/mL	6.3 µg/mL	12.5 µg/mL
CC(=O)OCC1=C(C(=O)O)N2C(=O)[C@@H](NC(=O)[C@H](NC(=O)c3cnc(-c4ccc(NC(=O)C5CCCN5C(C)=O)cc4)nc3O)c3ccccc3)[C@H]2SC1 (mixture of isomers) [Example 13, N-[2-[4-(N-Acetyl-DL-prolylamino)phenyl]-4-hydroxy-5-pyrimidinylcarbonyl]-7-[D-2-amino-2-phenylacetamido]-3-acetoxy-methyl-3-cephem-4-carboxylic acid]	3.1 µg/mL	12.5 µg/mL	6.3 µg/mL	50 µg/mL	6.3 µg/mL	50 µg/mL	50 µg/mL	50 µg/mL	12.5 µg/mL	> 50 µg/mL	25 µg/mL	12.5 µg/mL
